How the values were obtained:
IFNg = IFNg gene expression in murine pancreatic cancer tumours (real time PCR); format: in vivo, mice; conditions: tumour mRNA; daily i.p. 10 μmol/kg; vehicle 1.0
Description: (§1) For treatment of pancreatic cancer, mice susceptible to pancreatic cancer were observed until cancer was apparent. Thereafter, animals were classified by ultrasound to a group of similar tumour size and were allocated to treatments: Vehicle, Gemcitabine 100 mg/kg every 5th day, or Gemcitabine plus the IL-10 inhibitor 43j ([…] i.p.), or the IL-12 stimulant 49 (10 μmol/kg/day i.p.) or all three combined at the doses specified.
(§2) Murine pancreatic cancer was induced as in Example 61. Mice carrying tumours were selected when the tumour was first detectable by ultrasound and the animals allocated to groups treated with either Vehicle, 49 alone or 43J alone or the combination of 49 and 43j. Compounds were supplied daily i.p. at 10 μmol/kg. Gene expression as determined by mRNA levels is determined by real time PCR methods using reverse transcribed templates.

IL-10 [1] = assay: IL-10 production by bone marrow derived macrophage or tumour associated macrophage; format: cell-based, C57BL/6 mice; conditions: 1 or 10 μM; stimulant such as LPS or TNFa or tumour conditioned medium
Description: (§3) A similar experiment can be performed using Bone marrow derived macrophage or Tumour associated macrophage (TAM): Mouse macrophages were derived from the bone marrow of WT, C57BL/6 mice and cultured for 7 d in DMEM medium supplemented with 10 ng/ml recombinant mouse M-CSF (R & D Systems). TAMs were isolated from the peritoneal cavity of mice in which IDB ovarian cancers had been growing i.p. for up to 10 wk. The macrophage are then treated with the compound to test at 1 or 10 μM in the presence of a stimulant such as LPS or TNFa or tumour conditioned medium.

TNFa = TNFa gene expression in murine pancreatic cancer tumours (real time PCR); format: in vivo, mice; conditions: tumour mRNA; daily i.p. 10 μmol/kg; vehicle 15.2
Description: as §1, §2

IL-17 = IL-17 gene expression in murine pancreatic cancer tumours (real time PCR); format: in vivo, mice; conditions: tumour mRNA; daily i.p. 10 μmol/kg; vehicle 17.8
Description: as §1, §2

IL-6 = IL-6 gene expression in murine pancreatic cancer tumours (real time PCR); format: in vivo, mice; conditions: tumour mRNA; daily i.p. 10 μmol/kg; vehicle 22.5
Description: as §1, §2

IL-12 [2] = assay: IL-12 gene expression in murine pancreatic cancer tumours (real time PCR); format: in vivo, mice; conditions: tumour mRNA; daily i.p. 10 μmol/kg; vehicle 3.1
Description: as §1, §2

IL-10 [3] = assay: IL-10 gene expression in murine pancreatic cancer tumours (real time PCR); format: in vivo, mice; conditions: tumour mRNA; daily i.p. 10 μmol/kg; vehicle 21.4
Description: as §1, §2

IL-23 = IL-23 gene expression in murine pancreatic cancer tumours (real time PCR); format: in vivo, mice; conditions: tumour mRNA; daily i.p. 10 μmol/kg; vehicle 15.2
Description: as §1, §2

IL-10 [4] = assay: IL-10 production by LPS-stimulated murine peritoneal macrophage (ELISA); format: cell-based, mice; conditions: murine peritoneal macrophage
Outline: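 Mouse peritoneal macrophages or splenocytes were stimulated with LPS (10 μg/mL, macrophages) or concanavalin A (5 μg/mL, T cells) in RPMI-1640/10% FCS with 2-mercaptoethanol and HEPES. Compounds were added at final concentrations of 50 μM or less, with DMSO ≤1%. After 72 h, supernatant cytokines were measured by ELISA.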

IL-12 [5] = assay: IL-12 production by bone marrow derived macrophage or tumour associated macrophage; format: cell-based, C57BL/6 mice; conditions: 1 or 10 μM; stimulant such as LPS or TNFa or tumour conditioned medium
Description: as §3

IL-4 = IL-4 production, Con A, spleen; format: cell-based, mice; conditions: 5 μM, 72 h
Description: Peritoneal macrophage or splenocytes (lymphocytes and macrophage) were harvested from donor mice using standard techniques. Cells were placed in culture and stimulated with either LPS (10 μg/mL) or concanavalin A 5 μg/mL (Sigma Chemical Co., St Louis, Mo.) in RPMI-1640 medium supplemented with antibiotics, […] 2-mercaptoethanol, 10 mm HEPES buffer and 10% fetal calf serum (FCS) (see Holan et al., 1985) to stimulate macrophage and T-cells respectively. Compounds were added from DMSO stock solutions to a final concentration of 50 μM or less with DMSO not exceeding 1% of total volume. After 72 h, cell supernatant was recovered and the cytokine levels were estimated by ELISA. The effect of compounds on cytokine production was recorded as follows: […]

pancreatic cancer = assay: Survival of mice with pancreatic cancer; format: in vivo; conditions: Gemcitabine 100 mg/kg every 5th day; 43j 10 mmol/kg/d i.p.; 49 10 μmol/kg/day i.p.
Description: as §1

[6] = tested on: Lewis Lung Carcinoma Cells (LLC); assay: Subcutaneous Lewis Lung Carcinoma tumour growth; format: in vivo, C57BLK6 mice; conditions: 12.5 mg/kg p.o. once daily
Description: Lewis Lung Carcinoma Cells (LLC) are cultured by incubation in a medium which is RPMI 1640 (50%) and DMEM (50%) with a final concentration or fetal calf serum of 10%. After culture to the log phase, 10^5 cells are injected subcutaneously in […] mice. Mice are treated with substance either orally or via intraperitoneal injection.

| SMILES | Relative Gene expression, IFNg (IFNg) | production of IL-10 (IL-10 [1]) | Relative Gene expression, TNFa (TNFa) | Relative Gene expression, IL-17 (IL-17) | Relative Gene expression, IL-6 (IL-6) | Relative Gene expression, IL-12 (IL-12 [2]) | Relative Gene expression, IL-10 (IL-10 [3]) | Relative Gene expression, IL-23 (IL-23) | IL-10 by ELISA, % of solvent treated control (IL-10 [4]; 1.25 μM inhibitor in medium) | IL-10 by ELISA, % of solvent treated control (IL-10 [4]; 5 μM inhibitor in medium) | IL-10 by ELISA, % of solvent treated control (IL-10 [4]; 20 μM inhibitor in medium) | production of IL-12 (IL-12 [5]) | IL-4 (Con A, spleen), amount of cytokine (IL-4) | survival time relative to vehicle (pancreatic cancer) | growth rate of the LLC tumour [6] |
| --- | --- | --- | --- | --- | --- | --- | --- | --- | --- | --- | --- | --- | --- | --- | --- |
| CC[C@H]1OC(=O)[C@H](C)[C@@H](O[C@H]2C[C@@](C)(OC)[C@@H](O)[C@H](C)O2)[C@H](C)[C@@H](O[C@@H]2O[C@H](C)C[C@H](N(C)CCCCCC(=O)OCCSc3nc(-c4ccc(F)cc4)c(-c4ccnc(NC5CCOCC5)c4)[nH]3)[C@H]2O)[C@](C)(O)C[C@@H](C)CN(C)[C@H](C)[C@@H](O)[C@]1(C)O [Compound 43j] | 4.2 | inhibits the production of IL-10 | 13.1 | 14.6 | 15.2 | 3.4 | 3.1 | 11.0 |  |  |  |  |  |  |  |
| Nc1c(C(=O)c2cccc(OCC(O)CO)c2)cnn1-c1ccc(F)cc1 (stereo not shown) [Compound 49, [5-Amino-1-(4-fluoro-phenyl)-1H-pyrazol-4-yl]-[3-(2,3-dihydroxy-propoxy)-phenyl]-methanone] | 6.3 |  | 21.4 | 15.2 | 18.3 | 28.8 | 8.9 | 2.1 | 41 % of solvent treated control | 42 % of solvent treated control | 13 % of solvent treated control | stimulates the production of IL-12 | 188 % of control treated with solvent alone |  |  |
| Nc1ccn([C@@H]2O[C@H](CO)[C@@H](O)C2(F)F)c(=O)n1 [Gemcitabine] |  |  |  |  |  |  |  |  |  |  |  |  |  | 1.5 fold |  |
| CCc1nc(-c2cccc(C)c2)c(-c2ccnc(NC(=O)c3ccccc3)c2)s1 [TAK-715] |  |  |  |  |  |  |  |  |  |  |  |  |  |  | reduction in the growth rate of the LLC tumour |

Reference: patent US9617221B2, “Kinase modulators for the treatment of cancer” (Synovo GmbH, priority 2010, dated 2017)
